In brackets after ≈: the same amount, converted by molar mass.
How the values were obtained:
Type in all cases: binding, rabbits of the New Zealand variety
[1] = system: specific sulfamide antiserum; test: ELISA immunoassay, calibration with sulfapyridine; settings: [Ab] 1/8000, [AT] 0.625 μg/ml, from four-parameter fit of calibration curve
[2] = system: specific sulfamide antiserum (#155); test: Impedimetric immunosensor of the invention, competitive immunoassay calibrated with sulfapyridine; settings: Sensor; [Ab] 1/2000; [AT] 0.8 μg/ml (2d-BSA); from four-parameter fit of calibration curve
Experimental: Before proceeding to the functionalization, the electrodes were cleaned in a solution of 70% absolute ethanol and 30% Milli-Q water. Afterwards, the devices were submerged in a solution of 2.5% NaOH and Milli-Q water for 10 minutes, followed by a rinsing in 100 mL of Milli-Q water, in order to neutralize the action of the NaOH. Finally, the electrodes were cleaned in ethanol and dried in nitrogen current.
The electrodes were introduced into a GPTS [(3-glycidoxipropil) trimethoxisilane] solution with 2.5% ethanol anhydride for three hours, at ambient temperature and with orbital agitation. After this time had passed, the devices were washed in ethanol and dried in nitrogen current. […]
Biological molecular receptors (antibodies) were designed and produced to analyse antibiotics from the family of sulfamides. […] The covalent bonding of the haptens or antigens and the quantification of the number of the remainder of antigens bonded to the protein was carried out by means of a mass spectrometer. […]
Sulfapyridine pattern solutions prepared in PBST (0.64 nM-50000 nM, in PBST) were added to the electrodes (150 μL/electrode), followed by a solution with the specific sulfamide antiserum (#155) obtained (1/2000 in PBST, 150 μL/electrode). […] The reaction was measured in a low conductivity solution. […]

[3] = system: antiserums produced for sulphonamide-type antibiotics; test: Direct ELISA format with HRP enzymatic tracers of competition haptens (preliminary studies)
From the text: Biological molecular receptors (antibodies) were designed and produced to analyse antibiotics from the family of sulfamides. The preparation of the biological receptors was approached by means of the design of immunization haptens using molecular modelling strategies. As a consequence of these studies, the synthesis of 2 haptens or antigens was proposed. One of them (hapten 1) kept the greater part of the structure of the sulfamides, while the second (hapten 2) was only a fragment which conserved the part common to most of the compounds of this family of antibiotics. The two haptens were combined to the HCH (horseshoe crab hemocyanin) protein and to the BSA (bovine serum albumin) protein by using methods described in the literature. The covalent bonding of the haptens or antigens and the quantification of the number of the remainder of antigens bonded to the protein was carried out by means of a mass spectrometer. Following this, rabbits of the New Zealand variety were immunised with these antigens by applying a six-month long immunisation protocol, during which the progress of the immune response was controlled by means of extracting small blood samples.
With the aim of evaluating the avidity of the antiserums produced by the sulphonamide-type antibiotics, it was necessary to establish a competitive-type immunochemical assay. […]

SMILES	IC50 [1] [µM]	IC50 [2] [µM]	IC50 [3] [ng/mL]
Nc1ccc(S(=O)(=O)Nc2ccccn2)cc1 [sulfapyridine]	0.00929	0.014	
Nc1ccc(S(=O)(=O)Nc2cnccn2)cc1 [sulfapyrazine]			~9 (≈ 0.036 µM)
